The results in this text go back to BindingDB's records for PubMed 32163814 (n/a, 2020).

The target in test [1] is T1, Histone deacetylase 6 (Homo sapiens, UniProt Q9UBN7).
T1 sequence (Q9UBN7 whole entry): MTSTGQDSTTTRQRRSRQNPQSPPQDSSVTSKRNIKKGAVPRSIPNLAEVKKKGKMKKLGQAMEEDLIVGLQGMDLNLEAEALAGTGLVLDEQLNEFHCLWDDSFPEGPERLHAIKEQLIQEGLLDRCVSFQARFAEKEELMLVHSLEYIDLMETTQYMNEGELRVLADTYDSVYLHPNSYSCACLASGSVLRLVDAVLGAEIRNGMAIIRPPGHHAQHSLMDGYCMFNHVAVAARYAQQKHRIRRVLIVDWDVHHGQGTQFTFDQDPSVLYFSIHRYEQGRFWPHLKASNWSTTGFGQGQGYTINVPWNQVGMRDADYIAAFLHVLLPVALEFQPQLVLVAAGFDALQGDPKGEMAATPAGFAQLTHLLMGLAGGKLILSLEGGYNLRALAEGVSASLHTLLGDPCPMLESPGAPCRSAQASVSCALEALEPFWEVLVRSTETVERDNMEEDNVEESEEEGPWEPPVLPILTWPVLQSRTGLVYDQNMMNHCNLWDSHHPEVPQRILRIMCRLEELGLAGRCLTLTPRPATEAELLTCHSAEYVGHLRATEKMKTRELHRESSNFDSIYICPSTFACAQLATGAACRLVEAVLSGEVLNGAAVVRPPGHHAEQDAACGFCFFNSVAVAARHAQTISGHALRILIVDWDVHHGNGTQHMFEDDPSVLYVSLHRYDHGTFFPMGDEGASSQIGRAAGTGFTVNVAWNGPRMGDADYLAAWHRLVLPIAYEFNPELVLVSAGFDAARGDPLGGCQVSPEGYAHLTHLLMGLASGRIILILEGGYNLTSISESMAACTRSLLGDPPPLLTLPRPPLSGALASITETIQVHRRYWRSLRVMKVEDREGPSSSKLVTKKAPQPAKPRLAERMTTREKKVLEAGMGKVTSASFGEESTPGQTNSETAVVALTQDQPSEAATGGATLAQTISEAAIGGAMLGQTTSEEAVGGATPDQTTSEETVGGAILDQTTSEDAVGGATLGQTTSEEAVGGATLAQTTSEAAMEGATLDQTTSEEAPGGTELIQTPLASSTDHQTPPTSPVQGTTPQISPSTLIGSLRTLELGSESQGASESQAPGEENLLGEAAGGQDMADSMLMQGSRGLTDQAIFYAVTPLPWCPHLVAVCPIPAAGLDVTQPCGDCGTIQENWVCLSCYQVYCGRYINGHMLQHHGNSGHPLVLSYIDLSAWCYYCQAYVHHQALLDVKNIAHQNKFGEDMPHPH
Nature of the test: Inhibition of human recombinant HDAC6 using fluorogenic HDAC substrate measured after 20 mins by fluorescence assay.

Test [2] deals with Histone deacetylase 1 (Homo sapiens, UniProt Q13547). Nature of the test: Inhibition of human HDAC1 using fluorogenic as substrate measured after 30 mins by fluorescence based analysis.
Test [3] concerns the target Histone deacetylase 2 (Homo sapiens, UniProt Q92769). Nature of the test: Inhibition of human HDAC2 using fluorogenic as substrate measured after 30 mins by fluorescence based analysis.
The target in test [4] is T1, Histone deacetylase 6. Nature of the test: Inhibition of human HDAC6 using fluorogenic as substrate measured after 30 mins by fluorescence based analysis.
In test [5] the target is Histone deacetylase 3 (Homo sapiens, UniProt O15379). Nature of the test: Inhibition of human HDAC3 using fluorogenic as substrate measured after 30 mins by fluorescence based analysis.
Chain of Histone deacetylase 3 (O15379 whole entry): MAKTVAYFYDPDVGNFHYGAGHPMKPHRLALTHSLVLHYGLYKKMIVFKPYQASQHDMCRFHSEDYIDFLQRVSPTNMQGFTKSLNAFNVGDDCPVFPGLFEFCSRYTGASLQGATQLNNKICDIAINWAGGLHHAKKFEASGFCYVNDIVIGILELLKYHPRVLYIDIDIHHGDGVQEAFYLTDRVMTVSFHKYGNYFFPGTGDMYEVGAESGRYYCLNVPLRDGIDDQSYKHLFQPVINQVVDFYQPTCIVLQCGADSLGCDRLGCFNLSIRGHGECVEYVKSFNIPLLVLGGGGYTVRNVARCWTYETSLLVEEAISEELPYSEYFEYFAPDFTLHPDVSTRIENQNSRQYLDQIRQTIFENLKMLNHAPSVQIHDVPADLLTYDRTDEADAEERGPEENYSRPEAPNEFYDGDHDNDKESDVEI

Chain of Histone deacetylase 2 (Q92769 whole entry): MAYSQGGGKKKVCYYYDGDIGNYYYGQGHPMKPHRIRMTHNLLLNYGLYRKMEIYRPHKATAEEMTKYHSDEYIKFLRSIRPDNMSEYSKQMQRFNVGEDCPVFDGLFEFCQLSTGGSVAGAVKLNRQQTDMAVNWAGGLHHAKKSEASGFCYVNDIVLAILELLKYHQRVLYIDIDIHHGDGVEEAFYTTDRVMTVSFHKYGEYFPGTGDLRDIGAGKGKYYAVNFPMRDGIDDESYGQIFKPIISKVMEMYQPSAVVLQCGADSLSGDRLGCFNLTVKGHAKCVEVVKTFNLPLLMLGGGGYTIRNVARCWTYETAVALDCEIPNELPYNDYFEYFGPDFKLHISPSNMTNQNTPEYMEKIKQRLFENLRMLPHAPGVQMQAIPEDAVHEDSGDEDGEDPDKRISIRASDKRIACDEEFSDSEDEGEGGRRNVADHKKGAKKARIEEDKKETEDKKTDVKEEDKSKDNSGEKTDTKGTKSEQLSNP
Chain of Histone deacetylase 1 (Q13547 whole entry): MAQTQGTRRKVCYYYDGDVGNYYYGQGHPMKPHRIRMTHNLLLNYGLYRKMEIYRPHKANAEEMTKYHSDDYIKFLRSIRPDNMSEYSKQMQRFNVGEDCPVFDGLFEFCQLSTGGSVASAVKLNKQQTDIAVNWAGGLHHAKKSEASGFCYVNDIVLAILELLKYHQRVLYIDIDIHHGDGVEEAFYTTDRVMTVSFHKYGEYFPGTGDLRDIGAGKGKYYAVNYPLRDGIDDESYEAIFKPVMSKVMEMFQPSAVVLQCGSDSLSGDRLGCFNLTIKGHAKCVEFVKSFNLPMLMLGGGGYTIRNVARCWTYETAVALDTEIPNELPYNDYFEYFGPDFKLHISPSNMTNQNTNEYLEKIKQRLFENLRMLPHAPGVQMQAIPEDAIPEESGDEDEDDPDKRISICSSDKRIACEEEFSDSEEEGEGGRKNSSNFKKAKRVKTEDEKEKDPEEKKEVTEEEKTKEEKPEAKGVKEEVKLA

In the case of `COc1ccccc1NC(=O)N[C@H](C(=O)Nc1ccc(C(=O)NO)cc1)c1ccccc1`, the IC50 in test [1] turned out to be 294 nM.
`O=C(NO)c1ccc(NC(=O)[C@@H](NC(=O)c2ccc3ccccc3c2)c2ccccc2)cc1`: the results for the IC50 in test [2], in test [3] and in test [4] were 29 nM, 244 nM and 376 nM, respectively.
For the compound `O=C(NO)c1ccc(NC(=O)[C@@H](NS(=O)(=O)c2cccc3ccccc23)c2ccccc2)cc1`, the IC50 in test [2] came to 31 nM; in test [3] it was 171 nM; in test [5] it was 23 nM; in test [4], 295 nM.
Take `O=C(NO)c1ccc(NC(=O)[C@@H](NC(=O)c2cccc(Br)c2)c2ccccc2)cc1`: the IC50 was 89 nM in test [3] and 196 nM in test [4].
On to `CN(C)c1cccc2c(S(=O)(=O)N[C@H](C(=O)Nc3ccc(C(=O)NO)cc3)c3ccccc3)cccc12`, for which the results for the IC50 in test [3] and in test [4] were 107 nM and 366 nM, respectively.
